This passage reports IC50 results from patent publication US10927105B1 (Lundbeck La Jolla Research Center, Inc., priority 2017, dated 2021).

Each structure is given as a SMILES string.

In this experiment the target is MAGL (Homo sapiens (Human), UniProt Q99685). As to the kind of experiment: In vitro competitive activity-based protein profiling (human prefrontal cortex membrane fractions, FP-Rh probe), MAGL band. As to conditions: read-out: MAGL IC50 (μM) (human); human prefrontal cortex membrane fractions.
Chain of MAGL (Q99685 whole entry): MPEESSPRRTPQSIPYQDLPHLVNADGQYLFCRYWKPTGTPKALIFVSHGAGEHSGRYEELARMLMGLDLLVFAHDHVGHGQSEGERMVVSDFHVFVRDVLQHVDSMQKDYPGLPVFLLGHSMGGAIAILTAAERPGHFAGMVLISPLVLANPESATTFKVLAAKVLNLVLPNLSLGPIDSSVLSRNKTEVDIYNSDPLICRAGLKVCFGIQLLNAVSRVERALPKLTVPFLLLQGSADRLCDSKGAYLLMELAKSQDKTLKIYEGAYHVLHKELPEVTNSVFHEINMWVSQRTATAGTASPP
On to `CN(Cc1ccc(C(F)(F)F)c(N2CCCC2)c1)C1(C)CCN(C(=O)n2ccc(C(=O)O)n2)CC1` [Example 385, 1-(4-methyl-4-(methyl(3-(pyrrolidin-1-yl)-4-(trifluoromethyl)-benzyl)amino)-piperidine-1-carbonyl)-1H-pyrazole-3-carboxylic acid], for which the IC50 – broadly, the concentration that gives 50% inhibition – was below 0.1 µM.

With `O=C(O)c1ccn(C(=O)N2C[C@H]3C[C@H](Oc4cc(Cl)cc(Cl)c4)C[C@H]3C2)n1` [Example 230, 1-(trans-5-(3,5-dichlorophenoxy)-octahydrocyclopenta-[c]pyrrole-2-carbonyl)-1H-pyrazole-3-carboxylic acid], the IC50 was below 0.1 µM.

Take `O=C(O)c1nn(C(=O)N2CCN(Cc3cc(F)cc(Oc4ccc(Cl)cc4)c3)CC2)cc1C(F)(F)F` [Example 408, 1-(4-(3-(4-chlorophenoxy)-5-fluorobenzyl)-piperazine-1-carbonyl)-4-(trifluoromethyl)-1H-pyrazole-3-carboxylic acid]: the IC50 was below 0.1 µM.

On to `Cc1cn(C(=O)N2C[C@H]3C[C@H](OCc4cccc(C(F)(F)F)c4C)C[C@H]3C2)nc1C(=O)O` [Example 306, 4-methyl-1-(trans-5-((2-methyl-3-(trifluoromethyl)-benzyl)oxy)-octahydrocyclopenta-[c]pyrrole-2-carbonyl)-1H-pyrazole-3-carboxylic acid], for which the IC50 is below 0.1 µM.

`O=C(O)c1ccn(C(=O)N2CCC(Oc3ccc(C(F)(F)F)cc3N3CCCC3)CC2)n1` [Example 307, 1-(4-(2-(pyrrolidin-1-yl)-4-(trifluoromethyl)-phenoxy)-piperidine-1-carbonyl)-1H-pyrazole-3-carboxylic acid]: the IC50 is below 0.1 µM.

Consider `O=C(O)c1ccn(C(=O)N2CCN(Cc3cccc(Oc4ccc(F)cn4)c3)CC2)n1` [Example 266, 1-(4-(3-((5-fluoropyridin-2-yl)oxy)benzyl)-piperazine-1-carbonyl)-1H-pyrazole-3-carboxylic acid], for which the IC50 is below 0.1 µM.

As to `CN(Cc1ccc(C(F)(F)F)cc1N1CCCCC1)C1(C)CCN(C(=O)n2ccc(C(=O)O)n2)CC1` [Example 397, 1-(4-methyl-4-(methyl(2-(piperidin-1-yl)-4-(trifluoromethyl)-benzyl)amino)-piperidine-1-carbonyl)-1H-pyrazole-3-carboxylic acid], the IC50 is below 0.1 µM.

For the compound `C[C@@H]1CN(Cc2cc(F)cc(Oc3ccc(Cl)cc3)c2)CCN1C(=O)n1ccc(C(=O)O)n1` [Example 348, (R)-1-(4-(3-(4-chlorophenoxy)-5-fluorobenzyl)-2-methylpiperazine-1-carbonyl)-1H-pyrazole-3-carboxylic acid], the IC50 was below 0.1 µM.

Regarding `CN(Cc1cc(C(F)(F)F)ccc1N1CCCC1)C1(C)CCN(C(=O)n2ccc(C(=O)O)n2)CC1` [Example 384, 1-(4-methyl-4-(methyl(2-(pyrrolidin-1-yl)-5-(trifluoromethyl)-benzyl)amino)-piperidine-1-carbonyl)-1H-pyrazole-3-carboxylic acid], the IC50 was below 0.1 µM.

As to `C[C@@H]1CN(Cc2ccc(-c3ccccc3)cc2Cl)CCN1C(=O)n1ccc(C(=O)O)n1` [Example 291, (R)-1-(4-((3-chloro-[1,1′-biphenyl]-4-yl)methyl)-2-methylpiperazine-1-carbonyl)-1H-pyrazole-3-carboxylic acid], the IC50 is below 0.1 µM.

On to `O=C(O)c1ccn(C(=O)N2CCN(Cc3ccc(C(F)(F)F)cc3N3CCCC3)CC2)n1` [Example 83, 1-(4-(2-(pyrrolidin-1-yl)-4-(trifluoromethyl)-benzyl)-piperazine-1-carbonyl)-1H-pyrazole-3-carboxylic acid], for which the IC50 was below 0.1 µM.

`O=C(O)c1ccn(C(=O)N2CCC(OCc3cc(N4CCCC4)cc(C(F)(F)F)c3)CC2)n1` [Example 331, 1-(4-((3-(pyrrolidin-1-yl)-5-(trifluoromethyl)-benzyl)-oxy)piperidine-1-carbonyl)-1H-pyrazole-3-carboxylic acid]: the IC50 was below 0.1 µM.

As for `O=C(O)c1ccn(C(=O)N2C[C@H]3C[C@H](Oc4cc(F)cc(Cl)c4)C[C@H]3C2)n1` [Example 222, 1-(trans-5-(3-chloro-5-fluorophenoxy)-octahydrocyclopenta-[c]pyrrole-2-carbonyl)-1H-pyrazole-3-carboxylic acid], the IC50 is below 0.1 µM.

In the case of `Cc1c(CO[C@H]2C[C@@H]3CN(C(=O)n4cc(Cl)c(C(=O)O)n4)C[C@@H]3C2)cccc1C(F)(F)F` [Example 341, 4-chloro-1-(trans-5-((2-methyl-3-(trifluoromethyl)-benzyl)oxy)-octahydrocyclopenta-[c]pyrrole-2-carbonyl)-1H-pyrazole-3-carboxylic acid], the IC50 was below 0.1 µM.

In the case of `O=C(O)c1ccn(C(=O)N2C[C@H]3C[C@H](Oc4ccccc4-c4cccnc4)C[C@H]3C2)n1` [Example 244, 1-(trans-5-(2-(pyridin-3-yl)phenoxy)-octahydrocyclopenta-[c]pyrrole-2-cathonyl)-1H-pyrazole-3-carboxylic acid], the IC50 is below 0.1 µM.

Turning to `O=C(O)c1ccn(C(=O)N2CCN(Cc3cccc(Oc4ccnc(C(F)(F)F)c4)c3)CC2)n1` [Example 355, 1-(4-(3-((2-(trifluoromethyl)-pyridin-4-yl)oxy)benzyl)-piperazine-1-carbonyl)-1H-pyrazole-3-carboxylic acid], the IC50 is below 0.1 µM.

For `C[C@H]1CN(Cc2cc(F)cc(Oc3ccc(Cl)cc3)c2)CCN1C(=O)n1ccc(C(=O)O)n1` [Example 347, (S)-1-(4-(3-(4-chlorophenoxy)-5-fluorobenzyl)-2-methylpiperazine-1-carbonyl)-1H-pyrazole-3-carboxylic acid], the IC50 is below 0.1 µM.

Consider `Cc1ccc(COC2CCN(C(=O)n3ccc(C(=O)O)n3)CC2)cc1C(F)(F)F` [Example 236, 1-(4-((4-methyl-3-(trifluoromethyl)-benzyl)oxy)-piperidine-1-carbonyl)-1H-pyrazole-3-carboxylic acid], for which the IC50 was below 0.1 µM.

Turning to `O=C(O)c1ccn(C(=O)N2CCC3(CCN(Cc4cccc(-c5ccccc5)c4Cl)C3)CC2)n1` [Example 358, 1-(2-((2-chloro-[1,1′-biphenyl]-3-yl)methyl)-2,8-diazaspiro[4.5]-decane-8-carbonyl)-1H-pyrazole-3-carboxylic acid], the IC50 is below 0.1 µM.

As to `O=C(O)c1ccn(C(=O)N2CCC3(CCCN3Cc3ccc(C(F)(F)F)cc3N3CC4CCC(C3)O4)CC2)n1` [Example 416, 1-(1-(2-(8-oxa-3-azabicyclo[3.2.1]-octan-3-yl)-4-(trifluoromethyl)-benzyl)-1,8-diazaspiro[4.5]-decane-8-carbonyl)-1H-pyrazole-3-carboxylic acid], the IC50 is below 0.1 µM.

Take `O=C(O)c1ccn(C(=O)N2CCN(Cc3ccc(Cl)c(-c4nccs4)c3)CC2)n1` [Example 274, 1-(4-(4-chloro-3-(thiazol-2-yl)benzyl)-piperazine-1-carbonyl)-1H-pyrazole-3-carboxylic acid]: the IC50 is below 0.1 µM.

Consider `O=C(O)c1ccn(C(=O)N2CCN(Cc3cccc(Oc4cccc(C(F)(F)F)n4)c3)CC2)n1` [Example 353, 1-(4-(3-((6-(trifluoromethyl)-pyridin-2-yl)oxy)benzyl)-piperazine-1-carbonyl)-1H-pyrazole-3-carboxylic acid], for which the IC50 is below 0.1 µM.

In the case of `O=C(O)c1ccn(C(=O)N2CCC3(CCN(Cc4cccc(C(F)(F)F)c4Cl)C3)CC2)n1` [Example 339, 1-(2-(2-chloro-3-(trifluoromethyl)-benzyl)-2,8-diazaspiro[4.5]-decane-8-carbonyl)-1H-pyrazole-3-carboxylic acid], the IC50 is below 0.1 µM.

For `NC(=O)c1ccn(C(=O)N2CCC3(CCN(Cc4ccc(N5CCOCC5)cc4Cl)C3)CC2)n1` [Example 197, 1-(2-(2-chloro-4-morpholinobenzyl)-2,8-diazaspiro[4.5]-decane-8-carbonyl)-1H-pyrazole-3-carboxamide], the IC50 was below 0.1 µM.

As for `CNC(=O)c1ccn(C(=O)N2CC3CN(Cc4cc(Cl)ccc4Cl)CC3C2)n1` (stereo not shown) [Example 430, 1-(5-(2,5-dichlorobenzyl)-octahydropyrrolo-[3,4-c]pyrrole-2-carbonyl)-N-methyl-1H-pyrazole-3-carboxamide], the IC50 is below 0.1 µM.

Turning to `C[C@@H]1CN(Cc2ccc(Cl)c(-c3nccs3)c2)CCN1C(=O)n1ccc(C(=O)O)n1` [Example 299, (R)-1-(4-(4-chloro-3-(thiazol-2-yl)benzyl)-2-methylpiperazine-1-carbonyl)-1H-pyrazole-3-carboxylic acid], the IC50 was below 0.1 µM.

`O=C(O)c1ccn(C(=O)N2CCC3(CCN(Cc4cc(Cl)cc(Cl)c4)C3)CC2)n1` [Example 162, 1-(2-(3,5-dichlorobenzyl)-2,8-diazaspiro[4.5]-decane-8-carbonyl)-1H-pyrazole-3-carboxylic acid]: the IC50 was below 0.1 µM.

In the case of `O=C(O)c1ccn(C(=O)N2CCN(Cc3ccc(C(F)(F)F)cc3N3CC[C@H](F)C3)CC2)n1` [Example 92, (S)-1-(4-(2-(3-fluoropyrrolidin-1-yl)-4-(trifluoromethyl)-benzyl)-piperazine-1-carbonyl)-1H-pyrazole-3-carboxylic acid], the IC50 was below 0.1 µM.

For the compound `C[C@H]1CN(Cc2cccc(OCC(C)(C)O)c2Cl)CCN1C(=O)n1ccc(C(N)=O)n1` [Example 450, (S)-1-(4-(2-chloro-3-(2-hydroxy-2-methylpropoxy)-benzyl)-2-methylpiperazine-1-carbonyl)-1H-pyrazole-3-carboxamide], the IC50 is below 0.1 µM.

For `O=C(O)c1ccn(C(=O)N2CCC3(CCN(Cc4cc(Cl)cc(Cl)c4Cl)C3)CC2)n1` [Example 337, 1-(2-(2,3,5-trichlorobenzyl)-2,8-diazaspiro[4.5]-decane-8-carbonyl)-1H-pyrazole-3-carboxylic acid], the IC50 is below 0.1 µM.

With `CNC(=O)c1ccn(C(=O)N2CC3CN(Cc4cccc(C(F)(F)F)c4)CC3C2)n1` (stereo not shown) [Example 432, N-methyl-1-(5-(3-(trifluoromethyl)-benzyl)-octahydropyrrolo-[3,4-c]pyrrole-2-carbonyl)-1H-pyrazole-3-carboxamide], the IC50 was below 0.1 µM.
